# Assay results: patent US8802597B2, “Herbicidal pyrimidines” (E I du Pont de Nemours and Company, priority 2003, dated 2014)
# Legend:
# Format in all cases: in vivo
# [1] = test system: barnyardgrass (Echinochloa crus-galli); experiment: Test A pre/postemergence
# Outline: (§1)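 Pre/post greenhouse screen; loam/sand soil; solvent + surfactant formulation; pre = directed soil spray at planting, post = 1–2 leaf plants, 2–10 cm; ~10 d; visual 0–100 rating vs untreated.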
# [2] = test system: redroot pigweed (Amaranthus retroflexus); experiment: Test A pre/postemergence
# Outline: as §1
# [3] = test system: morningglory (Ipomoea spp.); experiment: Test A pre/postemergence
# Outline: as §1
# [4] = test system: crabgrass (Digitaria sanguinalis); experiment: Test A pre/postemergence
# Outline: as §1
# [5] = test system: giant foxtail (Setaria faberi); experiment: Test A pre/postemergence
# Outline: as §1
# [6] = test system: velvetleaf (Abutilon theophrasti); experiment: Test A pre/postemergence
# Outline: as §1
# soybean (Glycine max) = experiment: Test C pre/postemergence; details: for Plant response rating (scale of 0 to 100), Soybean / Soybean plant response rating: Postemergence; for Soybean plant response rating: 125 g ai/ha, scale 0 to 100 (0 no effect, 100 complete control); for Plant response rating, Soybean: Preemergence, scale 0 to 100, 0 no effect, 100 complete control
# Outline: (§2)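 Test compounds, formulated in a non-phytotoxic solvent mix with surfactant, were applied to freshly planted seeds and, at the same time, to emerged plants at 1- to 4-leaf stage (2 to 18 cm). After 12 to 14 days in the greenhouse, response was scored visually versus controls, 0 = no effect, 100 = complete control.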
# [7] = test system: giant foxtail (Setaria faberii); experiment: Test C pre/postemergence; details: for Plant response rating (scale of 0 to 100), Foxtail, Giant / Foxtail, Giant plant response rating: Postemergence; for Foxtail, Giant plant response rating: scale 0 to 100 (0 no effect, 100 complete control); for Plant response rating, Foxtail, Giant: Preemergence
# Outline: as §2
# [8] = test system: johnsongrass (Sorghum halepense); experiment: Test C pre/postemergence; details: for Plant response rating (scale of 0 to 100), Johnsongrass / Johnsongrass plant response rating: Postemergence; for Johnsongrass plant response rating: scale 0 to 100 (0 no effect, 100 complete control); for Plant response rating, Johnsongrass: Preemergence
# Outline: as §2
# [9] = test system: bermudagrass (Cynodon dactylon); experiment: Test C pre/postemergence; details: for Plant response rating (scale of 0 to 100), Bermudagrass / Bermudagrass plant response rating: Postemergence; for Bermudagrass plant response rating: scale 0 to 100 (0 no effect, 100 complete control); for Plant response rating, Bermudagrass: Preemergence
# Outline: as §2
# [10] = Postemergence, 125 g ai/ha, 0 to 100 scale (0 no effect, 100 complete control)
# [11] = Postemergence, 500 g ai/ha, 0 to 100 scale (0 no effect, 100 complete control)
# [12] = Preemergence, 125 g ai/ha, 0 to 100 scale where 0 is no effect and 100 is complete control, approximately ten days
# [13] = Preemergence, 500 g ai/ha, 0 to 100 scale where 0 is no effect and 100 is complete control, approximately ten days
# [14] = 16 g ai/ha, scale 0 to 100, 0 no effect, 100 complete control
# [15] = 31 g ai/ha, scale 0 to 100, 0 no effect, 100 complete control
# [16] = 62 g ai/ha, scale 0 to 100, 0 no effect, 100 complete control
smiles,measurement,setting,value
CCCCOC(=O)c1nc(C2CC2)nc(N)c1Cl [Compound 76],"Plant response rating, Barnyardgrass",[1]; [10],90
same,"Plant response rating, Barnyardgrass",[1]; [11],90
same,"Plant response rating, Barnyardgrass",[1]; [12],75
same,"Plant response rating, Barnyardgrass",[1]; [13],90
same,"Plant response rating, Pigweed",[2]; [10],85
same,"Plant response rating, Pigweed",[2]; [11],95
same,"Plant response rating, Pigweed",[2]; [12],80
same,"Plant response rating, Pigweed",[2]; [13],90
same,"Plant response rating, Morningglory",[3]; [10],90
same,"Plant response rating, Morningglory",[3]; [11],95
same,"Plant response rating, Morningglory",[3]; [12],100
same,"Plant response rating, Morningglory",[3]; [13],100
same,"Plant response rating, Crabgrass",[4]; [10],45
same,"Plant response rating, Crabgrass",[4]; [11],70
same,"Plant response rating, Crabgrass",[4]; [12],30
same,"Plant response rating, Crabgrass",[4]; [13],75
same,"Plant response rating, Foxtail, Giant",[5]; [10],90
same,"Plant response rating, Foxtail, Giant",[5]; [11],90
same,"Plant response rating, Foxtail, Giant",[5]; [12],70
same,"Plant response rating, Foxtail, Giant",[5]; [13],85
same,"Plant response rating, Velvetleaf",[6]; [10],80
same,"Plant response rating, Velvetleaf",[6]; [11],100
same,"Plant response rating, Velvetleaf",[6]; [12],90
same,"Plant response rating, Velvetleaf",[6]; [13],100
same,"Plant response rating (scale of 0 to 100), Soybean",soybean (Glycine max); 16 g ai/ha,95
same,"Plant response rating (scale of 0 to 100), Soybean",soybean (Glycine max); 31 g ai/ha,95
same,"Plant response rating (scale of 0 to 100), Soybean",soybean (Glycine max); 62 g ai/ha,95
same,Soybean plant response rating,soybean (Glycine max),100
same,"Plant response rating, Soybean",soybean (Glycine max); 16 g ai/ha,50
same,"Plant response rating, Soybean",soybean (Glycine max); 31 g ai/ha,70
same,"Plant response rating, Soybean",soybean (Glycine max); 62 g ai/ha,95
same,"Plant response rating (scale of 0 to 100), Foxtail, Giant",[7]; 16 g ai/ha,15
same,"Plant response rating (scale of 0 to 100), Foxtail, Giant",[7]; 31 g ai/ha,25
same,"Plant response rating (scale of 0 to 100), Foxtail, Giant",[7]; 62 g ai/ha,55
same,"Foxtail, Giant plant response rating",[7]; 125 g ai/ha,85
same,"Plant response rating, Foxtail, Giant",[7]; [14],0
same,"Plant response rating, Foxtail, Giant",[7]; [15],0
same,"Plant response rating, Foxtail, Giant",[7]; [16],0
same,"Plant response rating, Foxtail, Giant","[7]; 125 g ai/ha, scale 0 to 100",10
same,"Plant response rating (scale of 0 to 100), Johnsongrass",[8]; 16 g ai/ha,25
same,"Plant response rating (scale of 0 to 100), Johnsongrass",[8]; 31 g ai/ha,65
same,Johnsongrass plant response rating,[8]; 125 g ai/ha,95
same,"Plant response rating, Johnsongrass",[8]; [14],0
same,"Plant response rating, Johnsongrass",[8]; [15],0
same,"Plant response rating, Johnsongrass",[8]; [16],20
same,"Plant response rating, Johnsongrass","[8]; 125 g ai/ha, scale 0 to 100",50
same,"Plant response rating (scale of 0 to 100), Bermudagrass",[9]; 16 g ai/ha,15
same,"Plant response rating (scale of 0 to 100), Bermudagrass",[9]; 31 g ai/ha,70
same,Bermudagrass plant response rating,[9]; 62 g ai/ha,75
same,Bermudagrass plant response rating,[9]; 125 g ai/ha,75
same,"Plant response rating, Bermudagrass",[9]; [14],0
same,"Plant response rating, Bermudagrass",[9]; [15],0
same,"Plant response rating, Bermudagrass",[9]; [16],0
same,"Plant response rating, Bermudagrass","[9]; 125 g ai/ha, scale 0 to 100",0
CCOC(=O)c1nc(-c2ccc(I)cc2)nc(N)c1Cl [Compound 133],"Plant response rating, Barnyardgrass",[1]; [10],10
same,"Plant response rating, Barnyardgrass",[1]; [11],40
same,"Plant response rating, Barnyardgrass",[1]; [12],0
same,"Plant response rating, Barnyardgrass",[1]; [13],15
same,"Plant response rating, Pigweed",[2]; [10],80
same,"Plant response rating, Pigweed",[2]; [11],90
same,"Plant response rating, Pigweed",[2]; [12],10
same,"Plant response rating, Pigweed",[2]; [13],65
same,"Plant response rating, Morningglory",[3]; [10],70
same,"Plant response rating, Morningglory",[3]; [11],85
same,"Plant response rating, Morningglory",[3]; [12],0
same,"Plant response rating, Morningglory",[3]; [13],35
same,"Plant response rating, Crabgrass",[4]; [10],30
same,"Plant response rating, Crabgrass",[4]; [11],55
same,"Plant response rating, Crabgrass",[4]; [12],0
same,"Plant response rating, Crabgrass",[4]; [13],45
same,"Plant response rating, Foxtail, Giant",[5]; [10],15
same,"Plant response rating, Foxtail, Giant",[5]; [11],60
same,"Plant response rating, Foxtail, Giant",[5]; [12],0
same,"Plant response rating, Foxtail, Giant",[5]; [13],30
same,"Plant response rating, Velvetleaf",[6]; [10],80
same,"Plant response rating, Velvetleaf",[6]; [11],85
same,"Plant response rating, Velvetleaf",[6]; [12],10
same,"Plant response rating, Velvetleaf",[6]; [13],30
same,"Plant response rating (scale of 0 to 100), Soybean",soybean (Glycine max); 16 g ai/ha,95
same,"Plant response rating (scale of 0 to 100), Soybean",soybean (Glycine max); 31 g ai/ha,95
same,"Plant response rating (scale of 0 to 100), Soybean",soybean (Glycine max); 62 g ai/ha,100
same,Soybean plant response rating,soybean (Glycine max),100
same,"Plant response rating (scale of 0 to 100), Foxtail, Giant",[7]; 16 g ai/ha,15
same,"Plant response rating (scale of 0 to 100), Foxtail, Giant",[7]; 31 g ai/ha,60
same,"Plant response rating (scale of 0 to 100), Foxtail, Giant",[7]; 62 g ai/ha,70
same,"Foxtail, Giant plant response rating",[7]; 125 g ai/ha,75
same,"Plant response rating (scale of 0 to 100), Johnsongrass",[8]; 16 g ai/ha,70
same,"Plant response rating (scale of 0 to 100), Johnsongrass",[8]; 31 g ai/ha,85
same,"Plant response rating (scale of 0 to 100), Johnsongrass",[8]; 62 g ai/ha,90
same,Johnsongrass plant response rating,[8]; 125 g ai/ha,95
same,"Plant response rating (scale of 0 to 100), Bermudagrass",[9]; 16 g ai/ha,50
same,"Plant response rating (scale of 0 to 100), Bermudagrass",[9]; 31 g ai/ha,85
same,Bermudagrass plant response rating,[9]; 62 g ai/ha,85
same,Bermudagrass plant response rating,[9]; 125 g ai/ha,85
